Measurements as given in patent US20240391954A1, “MC4R AGONIST PEPTIDES” (The Regents of the University of Michigan, priority 2021, published 2024).
Starred links: 1 amine or outer side, 2 acyl side, 3 side chain; linkers in the order of their positions; H or OH if unused. Positions of bridges follow the written chain, without caps; N, C: chain ends. Non-standard residues stand in square brackets, D forms with d. Residues, ends and D or L forms follow the SMILES beside them. dTyr(4-OMe) = O-methyl-D-tyrosine (4-OMe), COc1ccc(C[C@@H](N[*:1])C(=O)[*:2])cc1; NMeW = CN[C@@H](Cc1c[nH]c2ccccc12)C(=O)O; dPhe(4-Br) = N[C@H](Cc1ccc(Br)cc1)C(=O)O; d2Nal = N[C@H](Cc1ccc2ccccc2c1)C(=O)O; NMeH = CN[C@@H](Cc1c[nH]cn1)C(=O)O; 4Pal = N[C@@H](Cc1ccncc1)C(=O)O; Nle = CCCC[C@H](N)C(=O)O; Aib = CC(C)(N)C(=O)O

Assays:
human MC3R [1] = biological target: T1, human MC3R (Homo sapiens, UniProt P41968); test: split-luciferase cAMP sensor assay, agonist mode (measurement window 1), hMC3R; assay type: cell-based; details: for Emax: % maximal activation, read-out: MC3R cAMP % max activation; for MC4R selectivity vs MC3R: MC4R versus MC3R
T1 construct: expressed in transfected cells; host or cells: HEK-293 cells stably expressing the GScAMP22F split-luciferase cAMP sensor (parent reporter line from Promega); MC3R clone generated in-house, G418 selection
T1 sequence (P41968 whole entry): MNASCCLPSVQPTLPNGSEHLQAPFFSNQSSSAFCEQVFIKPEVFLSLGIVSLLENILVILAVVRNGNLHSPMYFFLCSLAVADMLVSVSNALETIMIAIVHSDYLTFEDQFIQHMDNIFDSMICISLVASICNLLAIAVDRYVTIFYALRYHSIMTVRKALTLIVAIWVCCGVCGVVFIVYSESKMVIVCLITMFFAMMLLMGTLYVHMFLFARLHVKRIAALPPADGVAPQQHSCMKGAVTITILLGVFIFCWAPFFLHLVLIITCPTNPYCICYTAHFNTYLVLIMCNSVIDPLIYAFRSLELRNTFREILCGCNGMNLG
Method in brief: (§1)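 Live stable cell lines carrying receptor plus GloSensor cAMP22f split-luciferase, loaded with 4% D-luciferin in serum-free medium (~1% serum estimated during assay). Luminescence recorded during in-line peptide addition; direct agonist effect read in window 1, with 20 μM forskolin as normalization reference. EC50 from four-parameter sigmoid fit.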

human MC4R = biological target: T2, human MC4R (Homo sapiens, UniProt P32245); test: split-luciferase cAMP sensor assay, agonist mode (measurement window 1), hMC4R; assay type: cell-based; details: agonist mode; for Emax: % maximal activation, read-out: MC4R cAMP % max activation; for EC50: HEK-293 cells stably expressing hMC4R, read-out: MC4R cAMP EC50
T2 construct: host or cells: HEK-293 cells stably expressing the GScAMP22F split-luciferase cAMP sensor and hMC4R, G418 selection
T2 sequence (P32245 whole entry): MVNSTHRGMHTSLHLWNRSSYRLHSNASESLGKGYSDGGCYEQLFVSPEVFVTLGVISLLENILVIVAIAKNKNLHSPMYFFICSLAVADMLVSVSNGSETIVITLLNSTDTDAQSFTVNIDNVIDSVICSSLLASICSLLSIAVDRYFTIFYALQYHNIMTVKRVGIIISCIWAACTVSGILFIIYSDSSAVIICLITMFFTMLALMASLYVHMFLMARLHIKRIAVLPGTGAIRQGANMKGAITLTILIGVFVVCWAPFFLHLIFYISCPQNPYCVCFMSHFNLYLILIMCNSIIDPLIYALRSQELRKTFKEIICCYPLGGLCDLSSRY
Method in brief: as §1

human MC1R = biological target: T3, human MC1R (Homo sapiens, UniProt Q01726); test: split-luciferase cAMP sensor assay, agonist mode, hMC1R; assay type: cell-based; details: MC4R versus MC1R
T3 construct: expressed in transfected cells; host or cells: HEK-293 cells stably expressing hMC1R and the GScAMP22F cAMP sensor
T3 sequence (Q01726 whole entry): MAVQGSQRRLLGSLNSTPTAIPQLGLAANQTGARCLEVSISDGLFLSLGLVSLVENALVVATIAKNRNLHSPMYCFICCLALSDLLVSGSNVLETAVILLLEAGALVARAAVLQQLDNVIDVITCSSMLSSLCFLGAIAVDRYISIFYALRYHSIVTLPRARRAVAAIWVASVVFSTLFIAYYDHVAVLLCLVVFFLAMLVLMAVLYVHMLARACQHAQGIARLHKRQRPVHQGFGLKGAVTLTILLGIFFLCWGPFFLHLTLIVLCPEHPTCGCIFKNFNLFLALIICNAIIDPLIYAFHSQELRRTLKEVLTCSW
Method: FIG. 4A-B. (A) Pharmacological properties of exemplary MC4R agonist peptides, including those with improved efficacy in the MC4R+/− mouse (CTX-1211, CTX-1227, and CTX-1228). Concentration-response agonist curves for peptides indicated at the human MC4R (red), human MC3R (blue), human MC5R (green), and human MC1R (black) were determined by a split-luciferase cAMP sensor dynamic assay in HEK-293 cells stably expressing the hMC1R, hMC3R, hMC4R, or hMC5R and the GScAMP22F cAMP sensor. Each data point represents the mean±SEM of two experiments with three replicates each per experiment. Data is normalized to the ECmax of α-MSH. (B) Same as above, for peptides representing reduced activity at the hMC1R. Inset tables indicate EC50 values for the ligand indicated for each receptor.
The assay for the determination of the cAMP response in live cells was described previously. (Yu et al., 2020, Science 368, 428-433; incorporated by reference in its entirety). Cells were seeded at a density of 20,000 cells per well using 384-well poly-D lysine-coated, clear bottom, and black-wall assay plates (Corning Inc. Corning, NJ). Cells were allowed to attach to the plates for 18 to 24 h after which growth media was removed and 20 μl of 4% D-luciferin (Promega) in CO2 independent, serum-free medium (Thermo Fisher Scientific) was added to each well. The luciferase substrate was allowed to permeate the cells for 120 min at 37° C. Intracellular cAMP levels were measured using an FDSS 7000EX Functional Drug Screening System (Hamamatsu Photonics, Hamamatsu, Japan) in the Center for Chemical Genomics at the Life Sciences Institute. This instrument allowed the in-line addition of test-peptides and receptor agonists while simultaneously acquiring the luminescence signal from live cells. Assay read steps were set as follows: baseline acquisition of 2 min, the addition of 10 μl of varying 3× concentrations of test-peptides or vehicle followed by 11 min measurement (measurement window 1), and 10 μl addition of 4× concentration of the endogenous melanocortin agonist α-MSH (Bachem, Bubendorf, Switzerland) followed by an additional 11 min response measurement (measurement window 2). The resulting final concentration of α-MSH was close to the respective receptor EC90 dose for each receptor. Intraplate concentration response curves for α-MSH and SHU-9119 (Phoenix Pharmaceuticals, Burlingame CA) were included as reference controls. A submaximal forskolin (20 μM) concentration was also included to serve as a normalization reference to account for cell number variations and differences in assay transducer efficiency between cell lines.
With this set up it was possible to evaluate the direct effect of the test-peptides on the MC3R and MC4R cell lines during measurement window 1, while the antagonist profile in the presence of EC90 α-MSH was determined on measurement window 2. For data analysis baseline luminescence (i.e. the maximum luminescence signal from the initial 0 to 2 min window) was subtracted from the maximum luminescence obtained during measurement window 1 (2 to 13 min) and measurement window 2 (13 to 24 min) to yield the test-peptide elicited responses. EC50 or IC50 potency values were determined by non-linear regression by fitting the data to a sigmoid four-parameter variable slope model using the GraphPad Prism version 8.4 software package (San Diego CA).

human MC4R receptor [2] = biological target: T4, human MC4R receptor (human, UniProt P32245 1-332); test: cell-based or functional assay
T4 sequence (P32245 whole entry): as the sequence (P32245 whole entry) above

human MC3R [3] = biological target: human MC3R (human, UniProt P41968 1-323); test: cell-based or functional assay
Chain of human MC3R (human, UniProt P41968 1-323) (P41968 whole entry): as the sequence (P41968 whole entry) above

human MC4R receptor [4] = biological target: T4, human MC4R receptor; test: cell-based or functional assay; remark: listed apart in the source

| Molecule | Emax (human MC3R [1]; agonist mode) [%] | MC4R selectivity vs MC3R (human MC3R [1]) | Emax (human MC4R) [%] | MC4R selectivity vs MC1R (human MC1R) | EC50 (human MC3R [1]; HEK-293 cells stably expressing hMC3R, agonist mode, read-out: MC3R cAMP EC50) [µM] | EC50 (human MC4R) [µM] | % max activation (human MC4R receptor [2]) [%] | cAMP EC50 (human MC4R receptor [2]) [µM] | % max activation (human MC3R [3]) [%] | cAMP EC50 (human MC3R [3]) [µM] | MC4R selectivity vs MC1R (human MC4R receptor [4]) | MC4R selectivity vs MC3R (human MC4R receptor [4]) |
| --- | --- | --- | --- | --- | --- | --- | --- | --- | --- | --- | --- | --- |
| CC(=O)N[C@H]1CSSC[C@@H](C(N)=O)NC(=O)[C@H](Cc2c[nH]c3ccccc23)NC(=O)[C@H](CCCNC(=N)N)NC(=O)[C@@H](Cc2ccccc2)NC(=O)[C@H](Cc2c[nH]cn2)NC(=O)C(C)(C)NC1=O [CTX-1631, cyclo(Cys-Aib-His-D-Phe-Arg-Trp-Cys)] | 100 | 6.91 | 107 | 4.09 | – | – | – | – | – | – | – | – |
| CC(=O)N[C@H]1CSSC[C@@H](C(N)=O)NC(=O)[C@H](Cc2ccccc2)NC(=O)[C@H](CCCNC(=N)N)NC(=O)[C@@H](Cc2ccccc2)NC(=O)[C@H](CCCNC(=N)N)NC(=O)C(C)(C)NC1=O [CTX-1635, cyclo(Cys-Aib-Arg-D-Phe-Arg-Phe-Cys)] (Ac-C[Aib]R[dF]RFC-NH2; disulfide 1-7 (inferred)) | 70 | 5.7 | 112 | 1.19 | – | – | – | – | – | – | – | – |
| CC1(C)NC(=O)CSC[C@@H](C(N)=O)NC(=O)[C@H](Cc2ccccc2)NC(=O)[C@H](CCCNC(=N)N)NC(=O)[C@@H](Cc2ccccc2)NC(=O)[C@H](CCCNC(=N)N)NC1=O [CTX-1651, Thioether-cyclo(Aib-Arg-D-Phe-Arg-Phe-Cys)] ({CH2CO}-[Aib]R[dF]RFC-NH2; thioether N-6) | – | >8 | 92 | 1.45 | > 10 | – | – | – | – | – | – | – |
| CCCC[C@H](NC(=O)[C@H](CCCNC(=N)N)NC(C)=O)C(=O)N[C@H]1CSSC[C@@H](C(N)=O)NC(=O)[C@H](Cc2c[nH]c3ccccc23)NC(=O)[C@H](CCCNC(=N)N)NC(=O)[C@@H](Cc2ccccc2)NC(=O)[C@H](Cc2ccncc2)NC1=O [CTX-1621, Arg-Nle-cyclo(Cys-Pal(4′)-D-Phe-Arg-Trp-Cys)] (Ac-R[Nle]C[4Pal][dF]RWC-NH2; disulfide 3-8 (inferred)) | 15 | 13 | 92 | 82 | – | 0.0029 | – | – | – | – | – | – |
| CC(=O)N[C@@H](CCCNC(=N)N)C(=O)N[C@H]1CSSC[C@@H](C(N)=O)NC(=O)[C@H](Cc2ccccc2)NC(=O)[C@H](CCCNC(=N)N)NC(=O)[C@@H](Cc2ccccc2)NC(=O)[C@H](CCCNC(=N)N)NC(=O)C(C)(C)NC1=O [CTX-1601, Arg-cyclo(Cys-Aib-Arg-D-Phe-Arg-Phe-Cys)] (Ac-RC[Aib]R[dF]RFC-NH2; disulfide 2-8) | 73 | 2.3 | 97 | 0.93 | – | – | – | – | – | – | – | – |
| C[C@H]1NC(=O)CSC[C@@H](C(N)=O)NC(=O)[C@H](Cc2c[nH]c3ccccc23)N(C)C(=O)[C@H](CCCNC(=N)N)NC(=O)[C@@H](Cc2ccccc2)NC(=O)[C@H](Cc2c[nH]cn2)N(C)C1=O [CTX-1203, Thioether-cyclo(D-Ala-Nme-His-D-Phe-Arg-Nme-Trp-Cys)] ({CH2CO}-[dA][NMeH][dF]R[NMeW]C-NH2; thioether N-6) | 107 | 161 | 109 | 2.32 | – | 0.016 | – | – | – | – | – | – |
| CC1(C)NC(=O)CSC[C@@H](C(N)=O)NC(=O)[C@H](Cc2c[nH]c3ccccc23)NC(=O)[C@H](CCCNC(=N)N)NC(=O)[C@@H](Cc2ccccc2)NC(=O)[C@H](Cc2c[nH]cn2)NC1=O [CTX-1647, Thioether-cyclo(Aib-His-D-Phe-Arg-Trp-Cys)] | 102 | 30 | 109 | 3.66 | – | – | – | – | – | – | – | – |
| Ac-RC[dA]R[dPhe(4-Br)]RWC-NH2 (disulfide 2-8) [CTX-2205] | – | – | – | – | – | – | 88 | 0.008 | 13 | 0.018 | 0.2 | 2.12 |
| Ac-RC[dA]P[dPhe(4-Br)]RWC-NH2 (disulfide 2-8; SMILES CC(=O)N[C@@H](CCCNC(=N)N)C(=O)N[C@H]1CSSC[C@@H](C(N)=O)NC(=O)[C@H](Cc2c[nH]c3ccccc23)NC(=O)[C@H](CCCNC(=N)N)NC(=O)[C@@H](Cc2ccc(Br)cc2)NC(=O)[C@@H]2CCCN2C(=O)[C@@H](C)NC1=O) [CTX-2204] | – | – | – | – | – | – | 13 | 0.058 | 0.2 | 0.011 | – | 0.19 |
| Ac-CGR[dPhe(4-Br)]RFC-NH2 (disulfide 1-7) [CTX-1640] | – | – | – | – | – | – | 100 | 0.0034 | 27 | 0.01 | 3.72 | 3.09 |
| Ac-CGR[dTyr(4-OMe)]RFC-NH2 (disulfide 1-7; SMILES COc1ccc(C[C@H]2NC(=O)[C@H](CCCNC(=N)N)NC(=O)CNC(=O)[C@@H](NC(C)=O)CSSC[C@@H](C(N)=O)NC(=O)[C@H](Cc3ccccc3)NC(=O)[C@H](CCCNC(=N)N)NC2=O)cc1) [CTX-1641] | – | – | – | – | – | – | 104 | 0.044 | 22 | 0.052 | 0.28 | 1.18 |
| Ac-RC[dA]P[d2Nal]RWC-NH2 (disulfide 2-8; SMILES CC(=O)N[C@@H](CCCNC(=N)N)C(=O)N[C@H]1CSSC[C@@H](C(N)=O)NC(=O)[C@H](Cc2c[nH]c3ccccc23)NC(=O)[C@H](CCCNC(=N)N)NC(=O)[C@@H](Cc2ccc3ccccc3c2)NC(=O)[C@@H]2CCCN2C(=O)[C@@H](C)NC1=O) [CTX-2203] | – | – | – | – | – | – | 1.4 | 0.012 | 1 | 0.029 | – | 2.45 |
